Assays:
[1] = tested on: Hepatitis B virus; test: Ratio of Lamivudine EC90 to compound EC90 for Lamivudine-resistant Hepatitis B virus harboring reverse transcriptase L180M mutant; format: functional
[2] = tested on: Hepatitis B virus; test: Fold resistance, ratio of EC90 for lamivudine-resistant Hepatitis B virus harboring reverse transcriptase M204I mutant to EC90 for wild type Hepatitis B virus; format: functional
[3] = tested on: Hepatitis B virus; test: Fold resistance, ratio of EC90 for adefovir-resistant Hepatitis B virus harboring reverse transcriptase N236T mutant to EC90 for wild type Hepatitis B virus; format: functional
[4] = Stability of the compound assessed as resistance to calf thymus adenosine deaminase; format: ADME; details: cattle
[5] = tested on: Hepatitis B virus; test: Antiviral activity against lamivudine-resistant Hepatitis B virus harboring reverse transcriptase L180M mutant infected in human HepG2(2.2.15) cells assessed as reduction of infectious virus titer treated daily for 9 days by quantitative Southern blot hybridization assay; format: functional; details: HepG2 2.2.15, 216 h
[6] = tested on: Hepatitis B virus; test: Fold resistance, ratio of EC90 for lamivudine-resistant Hepatitis B virus harboring reverse transcriptase L180M mutant to EC90 for wild type Hepatitis B virus; format: functional
[7] = tested on: Hepatitis B virus; test: Antiviral activity against lamivudine-resistant Hepatitis B virus harboring reverse transcriptase M204I mutant infected in human HepG2(2.2.15) cells assessed as inhibition of virus replication treated daily for 9 days by quantitative blot hybridization method; format: functional, organism-based; details: HepG2 2.2.15, 216 h
[8] = tested on: Hepatitis B virus; test: Antiviral activity against lamivudine-resistant Hepatitis B virus harboring reverse transcriptase M204V mutant infected in human HepG2(2.2.15) cells assessed as inhibition of virus replication treated daily for 9 days by quantitative blot hybridization method; format: functional, organism-based; details: HepG2 2.2.15, 216 h
[9] = tested on: Hepatitis B virus; test: Ratio of adefovir EC90 to compound EC90 for adefovir-resistant Hepatitis B virus harboring reverse transcriptase N236T mutant; format: functional
[10] = tested on: Hepatitis B virus; test: Antiviral activity against lamivudine-resistant Hepatitis B virus harboring reverse transcriptase M204I mutant infected in human HepG2(2.2.15) cells assessed as reduction of infectious virus titer treated daily for 9 days by quantitative Southern blot hybridization assay; format: functional; details: HepG2 2.2.15, 216 h
[11] = tested on: Hepatitis B virus; test: Antiviral activity against lamivudine-resistant Hepatitis B virus harboring reverse transcriptase L180M mutant infected in human HepG2(2.2.15) cells assessed as inhibition of virus replication treated daily for 9 days by quantitative blot hybridization method; format: functional, organism-based; details: HepG2 2.2.15, 216 h
[12] = tested on: Hepatitis B virus; test: Antiviral activity against adefovir-resistant Hepatitis B virus harboring reverse transcriptase N236T mutant infected in human HepG2(2.2.15) cells assessed as reduction of infectious virus titer treated daily for 9 days by quantitative Southern blot hybridization assay; format: functional; details: HepG2 2.2.15, 216 h
[13] = tested on: Hepatitis B virus; test: Fold resistance, ratio of EC90 for lamivudine-resistant Hepatitis B virus harboring reverse transcriptase M204V mutant to EC90 for wild type Hepatitis B virus; format: functional
[14] = tested on: Hepatitis B virus; test: Antiviral activity against lamivudine/entecavir-resistant Hepatitis B virus harboring reverse transcriptase L180M/M204V/S202G infected in human HepG2(2.2.15) cells assessed as inhibition of virus replication treated daily for 9 days by quantitative blot hybridization method; format: functional, organism-based; details: HepG2 2.2.15, 216 h
[15] = tested on: Hepatitis B virus; test: Ratio of adefovir EC50 to compound EC50 for adefovir-resistant Hepatitis B virus harboring reverse transcriptase N236T mutant; format: functional
[16] = tested on: Hepatitis B virus; test: Antiviral activity against lamivudine-resistant Hepatitis B virus harboring reverse transcriptase L180M/M204V double mutant infected in human HepG2(2.2.15) cells assessed as inhibition of virus replication treated daily for 9 days by quantitative blot hybridization method; format: functional, organism-based; details: HepG2 2.2.15, 216 h
[17] = tested on: Hepatitis B virus; test: Antiviral activity against wild type Hepatitis B virus infected in human HepG2(2.2.15) cells assessed as inhibition of virus replication treated daily for 9 days by quantitative blot hybridization method; format: functional, organism-based; details: HepG2 2.2.15, 216 h
[18] = tested on: Hepatitis B virus; test: Ratio of adefovir EC90 to compound EC90 for wild type Hepatitis B virus; format: functional
[19] = tested on: Hepatitis B virus; test: Fold resistance, ratio of EC90 for lamivudine-resistant Hepatitis B virus harboring reverse transcriptase L180M/M204V double mutant to EC90 for wild type Hepatitis B virus; format: functional
[20] = tested on: Hepatitis B virus; test: Antiviral activity against lamivudine-resistant Hepatitis B virus harboring reverse transcriptase M204V mutant infected in human HepG2(2.2.15) cells assessed as reduction of infectious virus titer treated daily for 9 days by quantitative Southern blot hybridization assay; format: functional; details: HepG2 2.2.15, 216 h
[21] = tested on: Hepatitis B virus; test: Antiviral activity against adefovir-resistant Hepatitis B virus harboring reverse transcriptase N236T mutant infected in human HepG2(2.2.15) cells assessed as inhibition of virus replication treated daily for 9 days by quantitative blot hybridization method; format: functional, organism-based; details: HepG2 2.2.15, 216 h
[22] = tested on: Hepatitis B virus; test: Antiviral activity against wild type Hepatitis B virus infected in human HepG2(2.2.15) cells assessed as reduction of infectious virus titer treated daily for 9 days by quantitative Southern blot hybridization assay; format: functional; details: HepG2 2.2.15, 216 h
[23] = Cytotoxicity against human HepG2(2.2.15) cells after 24 hrs by neutral red dye uptake assay; format: cell-based
[24] = tested on: Hepatitis B virus; test: Antiviral activity against lamivudine-resistant Hepatitis B virus harboring reverse transcriptase L180M/M204V double mutant infected in human HepG2(2.2.15) cells assessed as reduction of infectious virus titer treated daily for 9 days by quantitative Southern blot hybridization assay; format: functional; details: HepG2 2.2.15, 216 h

Row | Compound | Ratio [2] | Ratio [3] | EC90 [5] | Ratio [6] | EC50 [7] | EC50 [8] | EC90 [10] | EC50 [11] | EC90 [12] | Ratio [13] | EC50 [14] | EC50 [16] | EC50 [17] | Ratio [19] | EC90 [20] | EC50 [21] | EC90 [22] | CC50 at 24 h [23] | EC90 [24] | other results
1 | C=C1[C@@H](n2cnc3c(N)ncnc32)[C@@H](F)[C@H](O)[C@H]1CO | 1.1 | 1 | 5.1 µM | 1.1 | 1 µM | 1.8 µM | 5 µM | 2.1 µM | 4.6 µM | 1 | 0.67 µM | 2.2 µM | 1.5 µM | 1.2 | 4.7 µM | 1.7 µM | 4.5 µM | > 100 µM | 5.5 µM | Ratio [1]: 4.3; Stability [4]: Stable; Ratio [9]: 7.8; Ratio EC50 [15]: 4.5; Ratio [18]: 1.5
2 | Nc1ncnc2c1ncn2CCOCP(=O)(O)O [ADEFOVIR] | 1.1 | 5.1 | 7.7 µM | 1.1 | 1.9 µM | 1.6 µM | 8 µM | 5.5 µM | 36 µM | 1 | – | 2.1 µM | 1.3 µM | 1.2 | 7 µM | 7.8 µM | 7.1 µM | – | 8.5 µM | –
3 | C=C1[C@H](CO)[C@@H](O)C[C@@H]1n1cnc2c(=O)[nH]c(N)nc21 [ENTECAVIR] | – | – | – | – | – | – | – | – | – | – | 1.2 µM | – | 0.008 µM | – | – | – | 0.033 µM | 28 µM | – | –
4 | Nc1ccn([C@@H]2CS[C@H](CO)O2)c(=O)n1 [LAMIVUDINE] | >166 | 1.5 | 22 µM | 36.7 | > 100 µM | > 100 µM | > 100 µM | 1.5 µM | 0.9 µM | >166 | > 500 µM | > 100 µM | – | >166 | > 100 µM | – | 0.6 µM | – | > 100 µM | –

Source: ChEMBL document CHEMBL1909546, “Antiviral activity of novel 2'-fluoro-6'-methylene-carbocyclic adenosine against wild-type and drug-resistant hepatitis B virus mutants” (Bioorg Med Chem Lett, 2011)
